In publication PMC10341764 (International Journal of Molecular Sciences, 2023):

Key:
[1] = design: method as in PMID 31646241; details: cited from earlier work
[2] = design: method as in PMID 12735237; details: cited from earlier work
[3] = HPLC/MS/MS analysis of F12511 content in plasma and tissues; format: in vivo; details: mouse, brain / plasma, intravenous, 46 mg F12511/kg; 12 to 24 h time point
Protocol: We also monitored the ACAT enzyme activities in various tissues 4 to 48 h after a single IV injection of nanoparticle F at 46 mg/kg.
Both compounds were dissolved in DMSO at 10 mg/mL and stored at −40 °C. Subsequent working dilutions were made in fresh acetonitrile (ACN) daily. Calibrators and quality control measures were used in the appropriate matrix: C57BL/6 plasma (anticoagulant: K3-EDTA, Innovative Research), brain homogenate, liver homogenate, and adrenal gland homogenate. The tissues were homogenized at 0.1 g/mL in diH2O by using stainless steel beads and a Next Advance Bullet Blender. All the samples (50 µL) were protein precipitated, with 150 µL of 10 ng/mL CP113,818 in ACN acting as an internal standard and added via vortex for 1 min and centrifugation for 5 min at 15,000 rpm. In total, 150 µL of supernatant was transferred to amber autosampler vials, and 10 µL was injected on the LC-MS/MS system. […] The heated ESI source was operated with a spray voltage of 4500 V, vaporizer temperature at 500 °C, capillary temperature at 250 °C, and sheath and auxiliary gases at 30 and 15 arbitrary units, respectively.

[4] = test system: ACAT enzyme; assay: ACAT enzyme activity in tissue homogenates after IV injection (mixed micelles assay); details: judged by ACAT inhibition in brain
Protocol: Based on this finding, we treated the animals with the inhibitor by IV injection, perfused the mice after the animals were treated (to remove blood contamination from the tissues), then prepared the tissue homogenates, and monitored the ACAT enzyme activity in these tissues by using the mixed micelles enzyme assay described previously [24, 39, 49, 50] (the mixed micelles assay measures the ACAT enzyme activity independent of endogenous lipid composition because it reconstitutes the ACAT protein in mixed micelles with a defined lipid composition).

[5] = test system: adrenals; details: cited from earlier work
[6] = target: ACAT2; details: cited from earlier work
[7] = test system: cortical regions; design: method as in PMID 23427273; details: fed to mice for seven days; cited from earlier work
[8] = test system: 5xFAD mouse model; design: method as in PMID 37157042; details: oral feeding for 60 days; cited from earlier work
[9] = target: ACAT1; details: cited from earlier work
[10] = test system: ACAT; design: method as in PMID 8937424, PMID 12536672; details: cited from earlier work
[11] = test system: mouse model for EOAD; design: method as in PMID 15473963; details: slow-releasing pellet implanted underneath the mouse skin; cited from earlier work

CSc1cc(C)nc(SC)c1NC(=O)CN1CCN(CCSc2nc3ccccc3[nH]2)CC1.Cl.Cl [K604, 2-[4-[2-(Benzimidazol-2-ylthio)ethyl]piperazin-1yl]-N-[2,4-bis(methylthio)-6-methyl-3-pyridyl]acetamide dihydrochloride]
permeability to the mouse brain [1]: impermeable to the mouse brain
clinical phase 1 safety tests [2]: passed clinical phase 1 safety tests

CCCCCCCCCCCCS[C@H](C(=O)Nc1cc(C)c(O)c(C)c1C)c1ccccc1 [F12511, (S)-2′,3′,5′-trimethyl-4′-hydroxy-alpha-dodecylthio-alpha-phenylacetanilide]
Kp [3]: 0.005 to 0.01
permeability to the mouse brain as part of nanoparticles [4]: permeable to the mouse brain
adrenal toxicity in animals [5]: did not cause adrenal toxicity in animals
clinical phase 1 safety tests [2]: passed clinical phase 1 safety tests
Ki [6]: 110 nM

O=C(O)C[C@H]1CC[C@H](c2ccc(NC(=O)c3nnc(Nc4ccc(F)c(F)c4)o3)cc2)CC1 [AZD3988]
fine vacuolation in cortical regions [7]: significant reduction in fine vacuolation in cortical regions

CC(C)c1cc(C(C)C)c(CC(=O)NS(=O)(=O)Oc2c(C(C)C)cccc2C(C)C)c(C(C)C)c1 [CI1011, 2,6-bis(1-methylethyl)phenyl ((2,4,6-tris(1-methylethyl)phenyl)acetyl)sulfamate]
amyloidopathy and other AD-like pathologies [8]: ameliorated amyloidopathy and other AD-like pathologies
clinical phase 1 safety tests [2]: passed clinical phase 1 safety tests
Ki [6]: 20000 nM
Ki [9]: 20000 nM

CCCCCCCCC(SCCCCCC)C(=O)Nc1c(SC)cc(C)nc1SC (single isomer, unassigned) [enantiomeric isomer of CP113,818]
activity as ACAT inhibitor [10]: inactive as an ACAT inhibitor
adrenal toxicity [5]: causes severe adrenal toxicity

CCCCCCCC[C@H](SCCCCCC)C(=O)Nc1c(SC)cc(C)nc1SC [CP113,818]
adrenal accumulation and toxicity ([5]; preclinical trial, animals): accumulated in adrenals in animals and caused toxicity
Ki [6]: 20 nM
amyloidopathy [11]: effective in suppressing amyloidopathy
Ki [9]: 20 nM
